# Test results reported in patent US8168647B2, “Vinblastine derivatives, their preparation, use and pharmaceutical compositions comprising the said derivatives” (Shanghai Institute of Materia Medica Chinese Academy of …, priority 2007, dated 2012).
# pIC50: −log10 of the molar value. Counter-ions that a name gives are not always drawn. Like-named read-outs stand apart in the source and are kept apart here.
# Assays:
# [1] = tested on: human non-small cell lung cancer cell line A-549; test: In vitro cytotoxicity assay, Sulforhodamine B (SRB), A-549; format: cell-based; details: for IC50: A549, 72 h, read-out: A549 (IC50, nM)
# sarcoma 180 = test: In vivo antitumor assay on Sarcoma 180 (S180) in mice
# [2] = tested on: human cervical carcinoma cell line Hela; test: In vitro cytotoxicity assay, Sulforhodamine B (SRB), Hela; format: cell-based; details: Homo sapiens, HeLa; for IC50: 72 h, read-out: Hela (IC50, nM)
Compound,IC50 ([1]; Homo sapiens) [nM],IC50 [2] [nM],other results
CCC1=C[C@@H]2CN(CCc3c([nH]c4ccccc34)[C@@](C(=O)OC)(c3cc4c(cc3OC)N(C)[C@H]3C(O)(CNC(=O)C5CC5)[C@H](OC(C)=O)[C@]5(CC)C=CCN6CC[C@]43[C@@H]65)C2)C1 (stereo partly drawn) [BM33],26.4,17,"cell-based efficacy, inhibition of tumor cell proliferation (in words) [1]: excellent cell-based efficacy; Average weight (g) At sacrifice (sarcoma 180; 10 mg/kg, iv, d 1, 4): 22.2 g; Tumor Weight (g) X ± SD (sarcoma 180; 10 mg/kg, iv, d 1, 4): 0.30 ± 0.05 g; Average weight (g) At sacrifice (sarcoma 180; 20 mg/kg, iv d 1): 23.9 g; Tumor Weight (g) X ± SD (sarcoma 180; 20 mg/kg, iv d 1): 0.18 ± 0.02 g; inhibition in vivo at 10 mg/kg (sarcoma 180; Mus musculus, Sarcoma-180, iv, read-out: Inhibition rate %, 10 mg/kg, iv, d 1, 4): 81.3%; inhibition in vivo at 20 mg/kg (sarcoma 180; Mus musculus, Sarcoma-180, iv, read-out: Inhibition rate %, 20 mg/kg, iv d 1): 88.8%"
CC[C@]12C=CCN3CC[C@@]4(c5cc([C@@]6(C(=O)OC)C[C@@H]7C[C@@H](C(C)(F)F)CN(CCc8c6[nH]c6ccccc86)C7)c(OC)cc5N(C)[C@H]4C(O)(COC(=O)C4CC4)[C@@H]1OC(C)=O)[C@@H]32 (stereo partly drawn) [BM76],> 1000,> 1000,"Average weight (g) At sacrifice (sarcoma 180; 20 mg/kg, iv, d 1, 4): 31.4 g; Tumor Weight (g) X ± SD (sarcoma 180; 20 mg/kg, iv, d 1, 4): 1.20 ± 0.09 g; Average weight (g) At sacrifice (sarcoma 180; 40 mg/kg, iv, d 1, 4): 31.8 g; Tumor Weight (g) X ± SD (sarcoma 180; 40 mg/kg, iv, d 1, 4): 1.25 ± 0.45 g; inhibition in vivo at 20 mg/kg (sarcoma 180; Mus musculus, Sarcoma-180, iv, read-out: Inhibition rate %, 20 mg/kg, iv, d 1, 4): 25%; inhibition in vivo at 40 mg/kg (sarcoma 180; Mus musculus, Sarcoma-180, iv, read-out: Inhibition rate %, 40 mg/kg, iv, d 1, 4): 21.9%"
CCOCC1(O)[C@H](OC(C)=O)[C@]2(CC)C=CCN3CC[C@@]4(c5cc([C@@]6(C(=O)OC)C[C@@H]7C=C(CC)CN(CCc8c6[nH]c6ccccc86)C7)c(OC)cc5N(C)[C@@H]14)[C@@H]32 (stereo partly drawn) [BM1],348,154,
CCC1=C[C@@H]2CN(CCc3c([nH]c4ccccc34)[C@@](C(=O)OC)(c3cc4c(cc3OC)N(C)[C@H]3C(O)(CNC(=O)OCCOC)[C@H](OC(C)=O)[C@]5(CC)C=CCN6CC[C@]43[C@@H]65)C2)C1 (stereo partly drawn) [BM54],632,425,
CCC1=C[C@@H]2CN(CCc3c([nH]c4ccccc34)[C@@](C(=O)OC)(c3cc4c(cc3OC)N(C)[C@H]3C(O)(COC(=O)CC(C)C)[C@H](OC(C)=O)[C@]5(CC)C=CCN6CC[C@]43[C@@H]65)C2)C1 (stereo partly drawn) [BM13],> 1000,> 1000,
CCC1=C[C@@H]2CN(CCc3c([nH]c4ccccc34)[C@@](C(=O)OC)(c3cc4c(cc3OC)N(C)[C@H]3C(O)(COC(=O)NCCC(C)C)[C@H](OC(C)=O)[C@]5(CC)C=CCN6CC[C@]43[C@@H]65)C2)C1 (stereo partly drawn) [BM24],> 1000,> 1000,
C=CCOCC1(O)[C@H](OC(C)=O)[C@]2(CC)C=CCN3CC[C@@]4(c5cc([C@@]6(C(=O)OC)C[C@@H]7C=C(CC)CN(CCc8c6[nH]c6ccccc86)C7)c(OC)cc5N(C)[C@@H]14)[C@@H]32 (stereo partly drawn) [BM2],441,113,
CCC1=C[C@@H]2CN(CCc3c([nH]c4ccccc34)[C@@](C(=O)OC)(c3cc4c(cc3OC)N(C)[C@H]3C(O)(CNC(=O)OC5CCCC5)[C@H](OC(C)=O)[C@]5(CC)C=CCN6CC[C@]43[C@@H]65)C2)C1 (stereo partly drawn) [BM59],170,79.8,
CCC1=C[C@@H]2CN(CCc3c([nH]c4ccccc34)[C@@](C(=O)OC)(c3cc4c(cc3OC)N(C)[C@H]3C(O)(CNC(=O)c5cccc(Cl)c5)[C@H](OC(C)=O)[C@]5(CC)C=CCN6CC[C@]43C65)C2)C1 (stereo partly drawn) [BM40],103,42,
CCC1=C[C@@H]2CN(CCc3c([nH]c4ccccc34)[C@@](C(=O)OC)(c3cc4c(cc3OC)N(C)[C@H]3C(O)(CNC(=O)CC(C)C)[C@H](OC(C)=O)[C@]5(CC)C=CCN6CC[C@]43[C@@H]65)C2)C1 (stereo partly drawn) [BM30],> 1000,> 1000,
CCCOCC1(O)[C@H](OC(C)=O)[C@]2(CC)C=CCN3CC[C@@]4(c5cc([C@@]6(C(=O)OC)C[C@@H]7C=C(CC)CN(CCc8c6[nH]c6ccccc86)C7)c(OC)cc5N(C)[C@@H]14)[C@@H]32 (stereo partly drawn) [BM3],> 1000,> 1000,
CCC1=C[C@@H]2CN(CCc3c([nH]c4ccccc34)[C@@](C(=O)OC)(c3cc4c(cc3OC)N(C)[C@H]3C(O)(CNC(=O)Cc5ccccc5)[C@H](OC(C)=O)[C@]5(CC)C=CCN6CC[C@]43C65)C2)C1 (stereo partly drawn) [BM46],174,22.9,
CCC1=C[C@@H]2CN(CCc3c([nH]c4ccccc34)[C@@](C(=O)OC)(c3cc4c(cc3OC)N(C)[C@H]3C(O)(CNC(=O)CC(C)(C)C)[C@H](OC(C)=O)[C@]5(CC)C=CCN6CC[C@]43[C@@H]65)C2)C1 (stereo partly drawn) [BM31],395,245,
CCC1=C[C@@H]2CN(CCc3c([nH]c4ccccc34)[C@@](C(=O)OC)(c3cc4c(cc3OC)N(C)[C@H]3C(O)(CNC(=O)C5CCC5)[C@H](OC(C)=O)[C@]5(CC)C=CCN6CC[C@]43[C@@H]65)C2)C1 (stereo partly drawn) [BM35],117,45.2,
CCC1=C[C@@H]2CN(CCc3c([nH]c4ccccc34)[C@@](C(=O)OC)(c3cc4c(cc3OC)N(C)[C@H]3C(O)(CNC(=O)OCc5ccc(OC)cc5)[C@H](OC(C)=O)[C@]5(CC)C=CCN6CC[C@]43[C@@H]65)C2)C1 (stereo partly drawn) [BM68],150,87.6,
CCC1=C[C@@H]2CN(CCc3c([nH]c4ccccc34)[C@@](C(=O)OC)(c3cc4c(cc3OC)N(C)[C@H]3C(O)(CNC(=O)OCc5ccccc5)[C@H](OC(C)=O)[C@]5(CC)C=CCN6CC[C@]43[C@@H]65)C2)C1 (stereo partly drawn) [BM66],261,87.5,

Compound,IC50 ([1]; Homo sapiens) [nM],IC50 [2] [nM],other results
"CC[C@]1(O)C[C@@H]2CN(CCc3c([nH]c4ccccc34)[C@@](C(=O)OC)(c3cc4c(cc3OC)N(C)[C@H]3[C@@](O)(C(=O)OC)[C@H](OC(C)=O)[C@]5(CC)C=CCN6CC[C@]43[C@@H]65)C2)C1 [Vinblastine sulfate, vinblastine sulfate, reference compound]",3.4,2.5,
CCC1=C[C@@H]2CN(CCc3c([nH]c4ccccc34)[C@@](C(=O)OC)(c3cc4c(cc3OC)N(C)[C@H]3C(O)(CNC(=O)Oc5ccccc5OC)[C@H](OC(C)=O)[C@]5(CC)C=CCN6CC[C@]43[C@@H]65)C2)C1 (stereo partly drawn) [BM64],951,227,
CCC1=C[C@@H]2CN(CCc3c([nH]c4ccccc34)[C@@](C(=O)OC)(c3cc4c(cc3OC)N(C)[C@H]3C(O)(CNC(=O)OC(C)(C)C)[C@H](OC(C)=O)[C@]5(CC)C=CCN6CC[C@]43[C@@H]65)C2)C1 (stereo partly drawn) [BM51],505,172,
CCC1=C[C@@H]2CN(CCc3c([nH]c4ccccc34)[C@@](C(=O)OC)(c3cc4c(cc3OC)N(C)[C@H]3C(O)(CNC(=O)OCc5ccc6c(c5)OCO6)[C@H](OC(C)=O)[C@]5(CC)C=CCN6CC[C@]43[C@@H]65)C2)C1 (stereo partly drawn) [BM69],230,127,
"CC[C@]1(O)C[C@H]2CN(CCc3c([nH]c4ccccc34)[C@@](C(=O)OC)(c3cc4c(cc3OC)N(C=O)[C@H]3[C@@](O)(C(=O)OC)[C@H](OC(C)=O)[C@]5(CC)C=CCN6CC[C@]43[C@@H]65)C2)C1 [Vincristine sufate, reference compound]",,,"pIC50 ([1]; Homo sapiens, A549, SRB assay, 72 hours incubation, ditartrate of all compounds used, read-out: A549 (IC50)): 7.60; pIC50 ([2]; SRB assay, 72 hours incubation, ditartrate of all compounds used, read-out: Hela (IC50)): 7.95"
CCC1=C[C@@H]2CN(CCc3c([nH]c4ccccc34)[C@@](C(=O)OC)(c3cc4c(cc3OC)N(C)[C@H]3C(O)(CNC(=O)Oc5ccc(F)cc5)[C@H](OC(C)=O)[C@]5(CC)C=CCN6CC[C@]43[C@@H]65)C2)C1 (stereo partly drawn) [BM62],> 1000,377,
CCC(=O)OCC1(O)[C@H](OC(C)=O)[C@]2(CC)C=CCN3CC[C@@]4(c5cc([C@@]6(C(=O)OC)C[C@@H]7C=C(CC)CN(CCc8c6[nH]c6ccccc86)C7)c(OC)cc5N(C)[C@@H]14)[C@@H]32 (stereo partly drawn) [BM10],710,637,
CCCCOCC1(O)[C@H](OC(C)=O)[C@]2(CC)C=CCN3CC[C@@]4(c5cc([C@@]6(C(=O)OC)C[C@@H]7C=C(CC)CN(CCc8c6[nH]c6ccccc86)C7)c(OC)cc5N(C)[C@@H]14)[C@@H]32 (stereo partly drawn) [BM4],> 1000,295,
CCC1=C[C@@H]2CN(CCc3c([nH]c4ccccc34)[C@@](C(=O)OC)(c3cc4c(cc3OC)N(C)[C@H]3C(O)(CNC(=O)c5ccncc5)[C@H](OC(C)=O)[C@]5(CC)C=CCN6CC[C@]43C65)C2)C1 (stereo partly drawn) [BM42],78.3,22.4,
CCC1=C[C@@H]2CN(CCc3c([nH]c4ccccc34)[C@@](C(=O)OC)(c3cc4c(cc3OC)N(C)[C@H]3C(O)(COC(=O)C(C)C)[C@H](OC(C)=O)[C@]5(CC)C=CCN6CC[C@]43[C@@H]65)C2)C1 (stereo partly drawn) [BM11],> 1000,> 1000,
CCC1=C[C@@H]2CN(CCc3c([nH]c4ccccc34)[C@@](C(=O)OC)(c3cc4c(cc3OC)N(C)[C@H]3C(O)(CNC(=O)c5ccc(C)cc5)[C@H](OC(C)=O)[C@]5(CC)C=CCN6CC[C@]43[C@@H]65)C2)C1 (stereo partly drawn) [BM37],20.7,16,
CCC1=C[C@@H]2CN(CCc3c([nH]c4ccccc34)[C@@](C(=O)OC)(c3cc4c(cc3OC)N(C)[C@H]3C(O)(CNC(=O)c5ccc(F)cc5)[C@H](OC(C)=O)[C@]5(CC)C=CCN6CC[C@]43C65)C2)C1 (stereo partly drawn) [BM38],46.5,20.4,
CCC1=C[C@@H]2CN(CCc3c([nH]c4ccccc34)[C@@](C(=O)OC)(c3cc4c(cc3OC)N(C)[C@H]3C(O)(COC(=O)C5CC5)[C@H](OC(C)=O)[C@]5(CC)C=CCN6CC[C@]43[C@@H]65)C2)C1 (stereo partly drawn) [BM14],> 1000,> 1000,
CCCC(=O)NCC1(O)[C@H](OC(C)=O)[C@]2(CC)C=CCN3CC[C@@]4(c5cc([C@@]6(C(=O)OC)C[C@@H]7C=C(CC)CN(CCc8c6[nH]c6ccccc86)C7)c(OC)cc5N(C)[C@@H]14)[C@@H]32 (stereo partly drawn) [BM29],348,126,
CCC1=C[C@@H]2CN(CCc3c([nH]c4ccccc34)[C@@](C(=O)OC)(c3cc4c(cc3OC)N(C)[C@H]3C(O)(CNC(=O)OCc5ccccc5OC)[C@H](OC(C)=O)[C@]5(CC)C=CCN6CC[C@]43[C@@H]65)C2)C1 (stereo partly drawn) [BM67],480,176,
